Results on three compounds are retold here after ChEMBL document CHEMBL3227937, “2',3'-Bis(2-chloroethyl)aminophosphoryl-3'-amino-3'-deoxyadenosine: a cyclic nucleotide with antitumor activity” (1979).

In brackets after ≈: the same amount, converted by molar mass.

One assay concerns KB. Nature of the assay: Cytotoxicity against human KB cells. The format is functional.
A short description of assay [1]: Anticancer activity against mouse LE1210 cells allografted in mouse at 0.625 mg/kg, ip relative to control. The format is functional. The settings on record: route intraperitoneal.

`Nc1ncnc2c1ncn2[C@@H]1O[C@H](CO)[C@H]2NP(=O)(N(CCCl)CCCl)O[C@H]21` (single isomer, unassigned; isomer 2) had an ED50 in the assay on KB of 0.66 µg/mL (≈ 1.46 µM).

`Nc1ncnc2c1ncn2[C@@H]1O[C@H](CO)[C@H]2NP(=O)(N(CCCl)CCCl)O[C@H]21` (single isomer, unassigned; isomer 1): the T/C in assay [1] was 101%. Also, the EC50 with KB (Homo sapiens, KB, read-out: ED50 (the source's name)) worked out at 1.1 µg/mL (≈ 2.43 µM).

Take `CN(C)c1ncnc2c1ncn2[C@@H]1O[C@H](CO)[C@H]2NP(=O)(N(CCCl)CCCl)O[C@H]21` (mixture of isomers): the T/C in assay [1] worked out at 101%.
